{"source": "patent US20100189596A1", "about": "“COMPOSITE EMULSIFIER, AN EMULSION PREPARED FROM IT AND THE PREPARATION METHOD THEREOF” (SHENYANG PHARMACEUTICAL UNIVERSITY, priority 2007, published 2010)", "tested_on": "adriamycin-induced myocardial injury model in rat", "assay": "Protective effects on adriamycin-induced myocardial injury model in rat", "format": "in vivo, Wistar rats", "excerpt": "Coenzyme Q10 can reduce the cardiotoxicity induced by adriamycin. In this experiment, to adriamycin-induced myocardial injury model in rat was constructed for detecting the effects of coenzyme Q10 nanoemulsion of protecting rats from adriamycin-induced myocardial injury.\n40 Wistar rats (250±15 g, F/M=1:1) were randomly divided into five groups (8 animals each group): negative control group, ADM group, ADM+coenzyme Q10 (low dosage) group, ADM+coenzyme Q10 (medium dosage) group and ADM+coenzyme Q10 (high dosage) group. The control group received intraperitoneal injection of physiological saline at 10 mL/kg/d for 9 days. The ADM group received intraperitoneal injection of ADM at 3 mg/kg every other day for 5 times in total (9 days). The ADM+coenzyme Q10 (low, medium and high dosages) groups respectively received tail vein injection of coenzyme Q10 at 1.5, 3.0 and 6.0 mg/kg/d for 9 days, and ADM was administered at 3 mg/kg every other day for 5 times in total (9 days) (10 min after coenzyme Q10 injection, intraperitoneal injection of ADM 3 mg/kg was performed). The rats were sacrificed on the 10th day for histopathological examination and detection for the contents of malonaldehyde and SOD. The histopathological examination was performed by the steps of taking myocardial tissue from the left ventricular, fixing with 10% formaldehyde, slicing according to the conventional methods, and staining with HE.", "key": {"[1]": {"conditions": "ADM group, 3 mg/kg i.p. x5, n = 8"}, "[2]": {"conditions": "ADM group: ADM 3 mg/kg i.p. every other day, 5 times, n = 8"}}, "note": "Marks after values point to notes of the source that are not given here."}
{"compound": "COc1cccc2c1C(=O)c1c(O)c3c(c(O)c1C2=O)C[C@@](O)(C(=O)CO)C[C@@H]3O[C@H]1C[C@H](N)[C@H](O)[C@H](C)O1", "note": "[ADM, adriamycin]", "values": [{"measurement": "alterations of rat electrocardiogram", "setting": "ADM group (FIG. 2) compared with normal conditions", "value": "absent P-wave, flattened T-wave, obviously reduced ST-T segment, and decreased QRS waves"}, {"measurement": "myocardial MDA (nmol/mg prot)", "setting": "[1]", "value": "8.99 ± 1.17^a nmol/mg prot"}, {"measurement": "myocardial SOD (U/mg prot)", "setting": "[1]", "value": "330.02 ± 15.39^a U/mg prot"}, {"measurement": "Pathological classification of myocardial injury: number of rats in grade II", "setting": "[2]", "value": 3}, {"measurement": "Pathological classification of myocardial injury: number of rats in grade III", "setting": "[2]", "value": 5}, {"measurement": "myocardial tissue slice (stained with HE)", "setting": "rats received intraperitoneal injection of ADM", "value": "seriously injured"}]}
